Data reported in patent US6831084B1, “Branched adamantyl and noradamantyl aryl- and aralkylpiperazines with serotonin 5-HT1A activity” (Wyeth, priority 1999, dated 2004).
Counter-ions that a name gives are not always drawn.

Key:
[1] = molecular target: T1, serotonin 5-HT1A receptor (Rattus norvegicus, UniProt P19327); experiment: Displacement of [3H]-8-OH-DPAT from 5-HT1A receptor in rat hippocampal membrane homogenates; format: binding; settings: [3H]-8-OH-DPAT displacement, read-out: 5-HT1A Affinity (IC50)
T1 construct: in rat hippocampal membrane homogenates; from tissue; host or cells: rat hippocampus (membrane homogenates)
T1 sequence (P19327 1-422): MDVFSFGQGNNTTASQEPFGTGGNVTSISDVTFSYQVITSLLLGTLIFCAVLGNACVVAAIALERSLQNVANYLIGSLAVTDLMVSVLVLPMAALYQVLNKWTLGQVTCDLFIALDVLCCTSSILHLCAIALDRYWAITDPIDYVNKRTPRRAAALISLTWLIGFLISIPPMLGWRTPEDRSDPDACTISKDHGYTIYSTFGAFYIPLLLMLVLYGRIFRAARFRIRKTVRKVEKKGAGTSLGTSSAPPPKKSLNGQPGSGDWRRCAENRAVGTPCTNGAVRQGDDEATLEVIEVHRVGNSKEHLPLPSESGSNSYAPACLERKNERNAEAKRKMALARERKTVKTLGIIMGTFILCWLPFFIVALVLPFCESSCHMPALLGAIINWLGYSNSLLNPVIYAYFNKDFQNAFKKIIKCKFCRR
From the text: Affinity for the serotonin 5-HT1A receptor was established by assaying the test compound's ability to displace [^3H]-8-OH-DPAT from its binding site on the receptor complex in rat hippocampal membrane homogenates according to the method described in U.S. Pat. No. 5,482,940.

[2] = molecular target: T2, human 5-HT1A receptor (Homo sapiens, UniProt P08908); experiment: Block of 8-OH-DPAT-induced stimulation of [35S]-GTPγS binding (5-HT1A antagonist activity) in CHO cells stably transfected with human 5-HT1A receptor; format: biochemical; settings: block of 8-OH-DPAT-induced [35S]-GTPγS binding
T2 construct: expressed in transfected cells; host or cells: CHO cells, stably transfected
T2 sequence (P08908 1-422): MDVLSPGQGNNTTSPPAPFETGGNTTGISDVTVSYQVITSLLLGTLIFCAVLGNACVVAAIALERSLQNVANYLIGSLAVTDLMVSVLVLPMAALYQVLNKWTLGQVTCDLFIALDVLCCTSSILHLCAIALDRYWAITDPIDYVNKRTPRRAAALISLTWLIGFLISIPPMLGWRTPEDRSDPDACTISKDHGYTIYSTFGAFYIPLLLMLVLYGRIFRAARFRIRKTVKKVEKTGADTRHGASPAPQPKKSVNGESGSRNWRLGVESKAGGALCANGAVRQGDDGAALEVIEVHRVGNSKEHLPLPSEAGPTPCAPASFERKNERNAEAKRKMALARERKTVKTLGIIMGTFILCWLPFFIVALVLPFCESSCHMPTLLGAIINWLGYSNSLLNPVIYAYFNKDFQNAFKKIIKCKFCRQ

[3] = molecular target: T2, human 5-HT1A receptor; experiment: Stimulation of [35S]-GTPγS binding (5-HT1A agonist activity) in CHO cells stably transfected with human 5-HT1A receptor; format: biochemical; settings: for 5-HT1A Agonist Activity (GTPγS) % Agonist Activity: relative to the effect of the 5-HT1A full agonist 8-OH-DPAT
From the text: Data are presented as the percent of
agonist activity observed relative to the effect obtained with the 5-HT1A full agonist 8-OH-DPAT and the corresponding EC50 value.

EC50 [3]	Compound	melting point	IC50 [1]	5-HT1A Agonist Activity (GTPγS) % Agonist Activity [3]	other results
	O=C(N[C@H](Cc1ccccc1)CN1CCN(Cc2ccccc2)CC1)C12CC3CC(CC(C3)C1)C2 (as salt: hydrochloride) (hydrate or solvate) [Example 1, (R)-N-[1-(Phenylmethyl)-2-[4-(phenylmethyl)-1-piperazinyl]ethyl]tricyclo[3.3.1.1^3,7)]-decane-1-carboxamide Dihydrochloride Dihydrate]	261 to 263 °C			
	O=C(N[C@@H](Cc1ccccc1)CN1CCN(Cc2ccccc2)CC1)C12CC3CC(CC(C3)C1)C2 (as salt: hydrochloride) (hydrate or solvate) [Example 2, (S)-N-[1-(Phenylmethyl)-2-[4-(phenylmethyl)-1-piperazinyl]ethyl]tricyclo[3.3.1.1^3,7)]-decane-1-carboxamide Dihydrochloride Dihydrate]	263 to 266 °C			
	O=C(N[C@H](Cc1ccccc1)CN1CCN(c2ncccn2)CC1)C12CC3CC(CC(C3)C1)C2 (hydrate or solvate) [Example 3, (R)-N-[1-(Phenylmethyl)-2-[4-(2-pyrimidinyl)-1-piperazinyl]ethyl]tricyclo[3.3.1.1^3,7)]-decane-1-carboxamide Hemihydrate]	172 to 175 °C			
	O=C(N[C@H](Cc1ccccc1)CN1CCN(Cc2ccccc2)CC1)C12CC3CC(CC(C3)C1)C2 [Example 1, (R)-N-[1-(Phenylmethyl)-2-[4-(phenylmethyl)-1-piperazinyl]ethyl]tricyclo[3.3.1.1^3,7)]-decane-1-carboxamide Dihydrochloride Dihydrate]		2.3 nM		5-HT1A Antagonist Activity (GTPγS) % Antagonist Activity [2]: 100%; EC50 [2]: 36 nM
2 nM	O=C(N[C@H](Cc1ccccc1)CN1CCN(c2ncccn2)CC1)C12CC3CC(CC(C3)C1)C2 [Example 3, (R)-N-[1-(Phenylmethyl)-2-[4-(2-pyrimidinyl)-1-piperazinyl]ethyl]tricyclo[3.3.1.1^3,7)]-decane-1-carboxamide Hemihydrate]		0.43 nM	100%	
2.4 nM	O=C(N[C@@H](Cc1ccccc1)CN1CCN(c2ncccn2)CC1)C12CC3CC(CC(C3)C1)C2 [Example 4]	172 to 175 °C	1 nM	99%	
77 nM	Cl.Cl.O.O.O=C(N[C@@H](COCc1ccccc1)CN1CCN(Cc2ccccc2)CC1)C12CC3CC(CC(C3)C1)C2 [Example 5, (R)-N-[1-((Phenylmethoxy)methyl)-2-[4-(phenylmethyl)-1-piperazinyl]ethyl]tricyclo-[3.3.1.1^3,7)]-decane-1-carboxamide Dihydrochloride Dihydrate]		62 nM		
	Cl.Cl.O.O.O=C(N[C@@H](COCc1ccccc1)CN1CCN(Cc2ccccc2)CC1)C12CC3CC(CC(C3)C1)C2 [Example 5]			49%	
	COc1ccccc1N1CCN(C[C@@H](Cc2ccccc2)NC(=O)C23CC4CC(CC(C4)C2)C3)CC1.COc1ccccc1N1CCN(C[C@@H](Cc2ccccc2)NC(=O)C23CC4CC(CC(C4)C2)C3)CC1.O.O=C(O)/C=C/C(=O)O [Example 6, (R)-Adamantane-1-carboxylic acid [1-(phenylmethyl)-2-[4-(2-methoxyphenyl)-piperazinyl]ethyl]-amide Hemifumarate Hemihydrate]		0.21 nM	76%	
	COc1ccccc1N1CCN(C[C@H](Cc2ccccc2)NC(=O)C23CC4CC(CC(C4)C2)C3)CC1.COc1ccccc1N1CCN(C[C@H](Cc2ccccc2)NC(=O)C23CC4CC(CC(C4)C2)C3)CC1.O.O.O=C(O)/C=C/C(=O)O [Example 7, (S)-Adamantane-1-carboxylic acid [1-(phenylmethyl)-2-[4-(2-methoxyphenyl)-piperazinyl]ethyl]-amide Hemifumarate Hydrate]		0.7 nM	85%	

Compound	EC50 [3]	melting point	IC50 [1]	5-HT1A Agonist Activity (GTPγS) % Agonist Activity [3]	other results
O=C(N[C@@H](Cc1ccccc1)CN1CCN(Cc2ccccc2)CC1)C12CC3CC(CC(C3)C1)C2 [Example 2, (S)-N-[1-(Phenylmethyl)-2-[4-(phenylmethyl)-1-piperazinyl]ethyl]tricyclo[3.3.1.1^3,7)]-decane-1-carboxamide Dihydrochloride Dihydrate]	21 nM		0.7 nM	51%	
